Laboratory results taken from PubChem BioAssay (NCI).
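Grown in 96-well plates, cells were treated for 48 hours with each compound at five concentrations. Insufficient inhibition: endpoint recorded as highest concentration tested. Abbreviation: GI50, concentration required for 50% inhibition of growth. The concentration for full growth arrest is given as TGI.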

Tests used:
Test in all cases: NCI tumour cell line growth inhibition, 48 h; in the data active = GI50 below about 0.43 µM; inactive = the rest
MALME-3M melanoma = system: MALME-3M melanoma
SR leukemia = system: SR leukemia
SF-295 CNS = system: SF-295 CNS
OVCAR-5 ovarian = system: OVCAR-5 ovarian
M14 melanoma = system: M14 melanoma
K-562 leukemia = system: K-562 leukemia
MCF7 breast = system: MCF7 breast
HS 578T breast = system: HS 578T breast
HT29 colon = system: HT29 colon
NCI-H226 lung = system: NCI-H226 lung
COLO 205 colon = system: COLO 205 colon
A549 NSCLC = system: A549 NSCLC
OVCAR-3 ovarian = system: OVCAR-3 ovarian
HCT-15 colon = system: HCT-15 colon
SW-620 colon = system: SW-620 colon
CCRF-CEM leukemia = system: CCRF-CEM leukemia
NCI-H460 lung = system: NCI-H460 lung
HCC-2998 colon = system: HCC-2998 colon
SK-OV-3 ovarian = system: SK-OV-3 ovarian
HOP-92 NSCLC = system: HOP-92 NSCLC
HOP-62 NSCLC = system: HOP-62 NSCLC
OVCAR-8 ovarian = system: OVCAR-8 ovarian
HL-60(TB) leukemia = system: HL-60(TB) leukemia
UO-31 renal = system: UO-31 renal
IGROV1 ovarian = system: IGROV1 ovarian
786-0 renal = system: 786-0 renal
NCI/ADR-RES ovarian = system: NCI/ADR-RES ovarian
RPMI-8226 leukemia = system: RPMI-8226 leukemia
ACHN renal = system: ACHN renal
NCI-H23 lung = system: NCI-H23 lung
TK-10 renal = system: TK-10 renal
DU-145 prostate = system: DU-145 prostate
SF-268 CNS = system: SF-268 CNS
U251 CNS = system: U251 CNS
T-47D breast = system: T-47D breast
MOLT-4 leukemia = system: MOLT-4 leukemia
RXF 393 renal = system: RXF 393 renal
OVCAR-4 ovarian = system: OVCAR-4 ovarian
UACC-62 melanoma = system: UACC-62 melanoma
CAKI-1 renal = system: CAKI-1 renal
LOX IMVI melanoma = system: LOX IMVI melanoma
SK-MEL-2 melanoma = system: SK-MEL-2 melanoma
A498 renal = system: A498 renal
MDA-MB-231 breast = system: MDA-MB-231 breast
PC-3 prostate = system: PC-3 prostate
KM12 colon = system: KM12 colon
SK-MEL-28 melanoma = system: SK-MEL-28 melanoma
SNB-19 CNS = system: SNB-19 CNS
HCT-116 colon = system: HCT-116 colon
SN12C renal = system: SN12C renal
NCI-H522 lung = system: NCI-H522 lung
SK-MEL-5 melanoma = system: SK-MEL-5 melanoma
SF-539 CNS = system: SF-539 CNS
BT-549 breast = system: BT-549 breast
SNB-75 CNS = system: SNB-75 CNS
EKVX NSCLC = system: EKVX NSCLC
MDA-MB-435 = system: MDA-MB-435
UACC-257 melanoma = system: UACC-257 melanoma

Nc1c(C(=O)Nc2cccc(F)c2)sc2nc3c(cc12)C(=O)CCC3
> 75000 nM: TGI (K-562 leukemia)
active: GI50 (MALME-3M melanoma) 377 nM | GI50 (SF-295 CNS) 245 nM | GI50 (M14 melanoma) 397 nM | GI50 (K-562 leukemia) 160 nM | GI50 (MCF7 breast) 304 nM | GI50 (HT29 colon) 307 nM | GI50 (COLO 205 colon) 273 nM | GI50 (A549 NSCLC) 378 nM | GI50 (OVCAR-3 ovarian) 351 nM | GI50 (HCT-15 colon) 298 nM | GI50 (SW-620 colon) 350 nM | GI50 (CCRF-CEM leukemia) 341 nM | GI50 (NCI-H460 lung) 356 nM | GI50 (HL-60(TB) leukemia) 322 nM | GI50 (DU-145 prostate) 354 nM | GI50 (RXF 393 renal) 248 nM | GI50 (CAKI-1 renal) 387 nM | GI50 (A498 renal) 27.4 nM | GI50 (PC-3 prostate) 347 nM | GI50 (KM12 colon) 384 nM | GI50 (NCI-H522 lung) 371 nM | GI50 (SK-MEL-5 melanoma) 391 nM | GI50 (SF-539 CNS) 287 nM | GI50 (SNB-75 CNS) 339 nM
> 75200 nM: TGI (MDA-MB-231 breast)
751 nM: TGI (COLO 205 colon)
> 81600 nM: TGI (SK-MEL-2 melanoma)
> 100000 nM: TGI (MALME-3M melanoma) | TGI (OVCAR-5 ovarian) | TGI (M14 melanoma) | TGI (MCF7 breast) | TGI (HS 578T breast) | TGI (HT29 colon) | TGI (NCI-H226 lung) | TGI (A549 NSCLC) | TGI (OVCAR-3 ovarian) | TGI (HCT-15 colon) | TGI (SW-620 colon) | TGI (CCRF-CEM leukemia) | TGI (NCI-H460 lung) | TGI (HCC-2998 colon) | TGI (SK-OV-3 ovarian) | TGI (HOP-92 NSCLC) | TGI (HOP-62 NSCLC) | TGI (OVCAR-8 ovarian) | TGI (HL-60(TB) leukemia) | TGI (UO-31 renal) | TGI (IGROV1 ovarian) | TGI (786-0 renal) | TGI (NCI/ADR-RES ovarian) | TGI (RPMI-8226 leukemia) | TGI (ACHN renal) | TGI (NCI-H23 lung) | TGI (TK-10 renal) | TGI (DU-145 prostate) | TGI (SF-268 CNS) | TGI (T-47D breast) | TGI (MOLT-4 leukemia) | TGI (OVCAR-4 ovarian) | TGI (UACC-62 melanoma) | TGI (CAKI-1 renal) | TGI (LOX IMVI melanoma) | TGI (A498 renal) | TGI (PC-3 prostate) | TGI (KM12 colon) | TGI (SK-MEL-28 melanoma) | TGI (SNB-19 CNS) | TGI (HCT-116 colon) | TGI (SN12C renal) | TGI (NCI-H522 lung) | TGI (SK-MEL-5 melanoma) | TGI (SF-539 CNS) | TGI (BT-549 breast)
> 80000 nM: TGI (SF-295 CNS)
> 56500 nM: TGI (SNB-75 CNS)
> 70600 nM: TGI (SR leukemia)
inactive: GI50 (SR leukemia) 481 nM | GI50 (OVCAR-5 ovarian) 2240 nM | GI50 (HS 578T breast) 634 nM | GI50 (NCI-H226 lung) > 90100 nM | GI50 (HCC-2998 colon) 1010 nM | GI50 (SK-OV-3 ovarian) 436 nM | GI50 (HOP-92 NSCLC) 589 nM | GI50 (HOP-62 NSCLC) 685 nM | GI50 (OVCAR-8 ovarian) 31100 nM | GI50 (IGROV1 ovarian) 3020 nM | GI50 (786-0 renal) 595 nM | GI50 (NCI/ADR-RES ovarian) 487 nM | GI50 (RPMI-8226 leukemia) > 34500 nM | GI50 (ACHN renal) 842 nM | GI50 (NCI-H23 lung) 608 nM | GI50 (TK-10 renal) > 100000 nM | GI50 (SF-268 CNS) 37000 nM | GI50 (U251 CNS) 488 nM | GI50 (MOLT-4 leukemia) 21900 nM | GI50 (OVCAR-4 ovarian) > 55100 nM | GI50 (UACC-62 melanoma) 491 nM | GI50 (LOX IMVI melanoma) 772 nM | GI50 (SK-MEL-2 melanoma) 492 nM | GI50 (MDA-MB-231 breast) 1670 nM | GI50 (SK-MEL-28 melanoma) 20500 nM | GI50 (SNB-19 CNS) 29500 nM | GI50 (HCT-116 colon) 447 nM | GI50 (SN12C renal) 743 nM | GI50 (BT-549 breast) 3710 nM
> 69000 nM: TGI (U251 CNS)

COC(=O)c1cc(O)c2cc3c(cc2c1-c1cc(OC)c(OC)c(OC)c1)OCO3
inactive: GI50 (MALME-3M melanoma) 815 nM | GI50 (SF-295 CNS) 536 nM | GI50 (OVCAR-5 ovarian) 50200 nM | GI50 (M14 melanoma) 893 nM | GI50 (MCF7 breast) 459 nM | GI50 (HS 578T breast) 1430 nM | GI50 (NCI-H226 lung) 5120 nM | GI50 (COLO 205 colon) 2770 nM | GI50 (A549 NSCLC) 762 nM | GI50 (EKVX NSCLC) 2630 nM | GI50 (HCT-15 colon) 738 nM | GI50 (SW-620 colon) 496 nM | GI50 (NCI-H460 lung) 686 nM | GI50 (HCC-2998 colon) 6850 nM | GI50 (SK-OV-3 ovarian) 3020 nM | GI50 (HOP-92 NSCLC) 4190 nM | GI50 (HOP-62 NSCLC) 1790 nM | GI50 (OVCAR-8 ovarian) 11300 nM | GI50 (UO-31 renal) 4920 nM | GI50 (IGROV1 ovarian) 910 nM | GI50 (786-0 renal) 6230 nM | GI50 (NCI/ADR-RES ovarian) 462 nM | GI50 (UACC-257 melanoma) 1800 nM | GI50 (ACHN renal) 2590 nM | GI50 (NCI-H23 lung) 3770 nM | GI50 (TK-10 renal) 2160 nM | GI50 (DU-145 prostate) 2160 nM | GI50 (SF-268 CNS) 2940 nM | GI50 (U251 CNS) 577 nM | GI50 (T-47D breast) 2380 nM | GI50 (RXF 393 renal) 2950 nM | GI50 (OVCAR-4 ovarian) > 100000 nM | GI50 (UACC-62 melanoma) 1170 nM | GI50 (LOX IMVI melanoma) 1670 nM | GI50 (A498 renal) 494 nM | GI50 (MDA-MB-231 breast) 1500 nM | GI50 (PC-3 prostate) 2010 nM | GI50 (KM12 colon) 503 nM | GI50 (SK-MEL-28 melanoma) 5340 nM | GI50 (SNB-19 CNS) 3570 nM | GI50 (HCT-116 colon) 604 nM | GI50 (SK-MEL-5 melanoma) 891 nM | GI50 (SF-539 CNS) 3340 nM | GI50 (BT-549 breast) 7870 nM | GI50 (SNB-75 CNS) 1370 nM
1150 nM: TGI (OVCAR-3 ovarian)
1130 nM: TGI (NCI-H522 lung)
32000 nM: TGI (SNB-75 CNS)
5030 nM: TGI (SF-295 CNS)
48100 nM: TGI (HOP-92 NSCLC)
5460 nM: TGI (CAKI-1 renal)
1120 nM: TGI (MDA-MB-435)
18400 nM: TGI (HOP-62 NSCLC)
> 100000 nM: TGI (MALME-3M melanoma) | TGI (OVCAR-5 ovarian) | TGI (M14 melanoma) | TGI (MCF7 breast) | TGI (NCI-H226 lung) | TGI (COLO 205 colon) | TGI (A549 NSCLC) | TGI (EKVX NSCLC) | TGI (HCT-15 colon) | TGI (SW-620 colon) | TGI (NCI-H460 lung) | TGI (HCC-2998 colon) | TGI (SK-OV-3 ovarian) | TGI (OVCAR-8 ovarian) | TGI (UO-31 renal) | TGI (IGROV1 ovarian) | TGI (786-0 renal) | TGI (NCI/ADR-RES ovarian) | TGI (UACC-257 melanoma) | TGI (ACHN renal) | TGI (NCI-H23 lung) | TGI (TK-10 renal) | TGI (DU-145 prostate) | TGI (SF-268 CNS) | TGI (U251 CNS) | TGI (T-47D breast) | TGI (RXF 393 renal) | TGI (OVCAR-4 ovarian) | TGI (UACC-62 melanoma) | TGI (LOX IMVI melanoma) | TGI (A498 renal) | TGI (MDA-MB-231 breast) | TGI (PC-3 prostate) | TGI (KM12 colon) | TGI (SK-MEL-28 melanoma) | TGI (SNB-19 CNS) | TGI (HCT-116 colon) | TGI (SK-MEL-5 melanoma) | TGI (SF-539 CNS) | TGI (BT-549 breast)
active: GI50 (OVCAR-3 ovarian) 325 nM | GI50 (MDA-MB-435) 277 nM | GI50 (CAKI-1 renal) 344 nM | GI50 (SK-MEL-2 melanoma) 400 nM | GI50 (NCI-H522 lung) 272 nM
9480 nM: TGI (HS 578T breast)
6210 nM: TGI (SK-MEL-2 melanoma)
